Values after ≈ are worked out from the molar mass of the structure shown.
Tests used:
Test in all cases: ≥ marks a high value that may be exact or a test limit, other limits are often not marked, values filed in µg/mL are converted to µM
[1] = tested on: Candida albicans ATCC 2002
[2] = tested on: Escherichia coli ATCC 25922
[3] = tested on: Pseudomonas aeruginosa CMCCB 10104
[4] = tested on: Staphylococcus aureus ATCC 25923
Bacillus subtilis = tested on: Bacillus subtilis
Escherichia coli = tested on: Escherichia coli
Bacillus subtilis 168 = tested on: Bacillus subtilis 168
Escherichia coli B = tested on: Escherichia coli B
Pseudomonas aeruginosa = tested on: Pseudomonas aeruginosa
Staphylococcus aureus = tested on: Staphylococcus aureus
[5] = tested on: Candida parapsilosis ATCC 22019
[6] = tested on: Staphylococcus epidermidis ATCC 12228

Compound | MIC [1] [µM] | MIC [2] [µM] | MIC [3] [µM] | MIC [4] [µM] | also measured
CC[C@H](C)[C@@H]1NC(=O)[C@H](CCCCN)NC(=O)[C@@H](NC(=O)[C@H](CCCCN)NC(=O)[C@H](CC(C)C)NC(=O)[C@H](CC(N)=O)NC(=O)[C@H](CC(=O)O)NC(=O)[C@H](CC(C)C)NC(=O)[C@H](CC(C)C)NC(=O)[C@@H](NC(=O)[C@@H](NC(=O)[C@H](C)NC(=O)[C@H](CCSC)NC(=O)[C@H](CC(N)=O)NC(=O)[C@H](CCCCN)NC(=O)[C@H](C)NC(=O)[C@@H](NC(=O)[C@H](CC(N)=O)NC(=O)[C@H](CCCCN)NC(=O)[C@H](C)NC(=O)[C@@H](NC(=O)[C@H](CC(=O)O)NC(=O)[C@H](CCSC)NC(=O)[C@H](Cc2ccccc2)NC(=O)CN)[C@@H](C)O)C(C)C)C(C)C)[C@@H](C)O)CSSC[C@@H](C(=O)O)NC(=O)[C@H](C)NC(=O)[C@H](CCCCN)NC(=O)[C@H]([C@@H](C)O)NC1=O [GFMDTAKNVAKNMAVTLLDNLKCKITKAC] | 1.21 (≈ 3.8 µg/mL) | 2.39 (≈ 7.5 µg/mL) | 2.39 (≈ 7.5 µg/mL) | 1.21 (≈ 3.8 µg/mL) | 
CC[C@H](C)[C@H](NC(=O)[C@H](CO)NC(=O)[C@H](C)NC(=O)[C@@H](NC(=O)[C@H](CCCCN)NC(=O)[C@H](CCCCN)NC(=O)[C@@H](N)Cc1c[nH]c2ccccc12)[C@@H](C)CC)C(=O)NCC(=O)N[C@@H](CCCCN)C(=O)N[C@@H](CCC(=O)O)C(=O)N[C@H](C(=O)N[C@@H](CC(C)C)C(=O)N[C@@H](CCCCN)C(=O)N[C@@H](C)C(=O)N[C@@H](CC(C)C)C(N)=O)C(C)C [WKKIASIGKEVLKAL] |  |  |  |  | MIC (Bacillus subtilis): ≥ 125 µM; MIC (Escherichia coli): 62 µM (≈ 104 µg/mL)
CC(C)C[C@H](NC(=O)[C@H](CCC(=O)O)NC(=O)[C@@H]1CCCN1C(=O)[C@H](CCC(=O)O)NC(=O)[C@@H](NC(=O)[C@H](C)NC(=O)[C@H](C)NC(=O)[C@@H](N)CC(=O)O)C(C)C)C(=O)N[C@@H](Cc1ccc(O)cc1)C(=O)N[C@@H](Cc1cnc[nH]1)C(=O)N[C@@H](Cc1c[nH]c2ccccc12)C(=O)NCC(=O)N[C@@H](CCCCN)C(=O)N[C@H](C(=O)N[C@@H](Cc1c[nH]c2ccccc12)C(=O)N[C@@H](CC(C)C)C(=O)N1CCC[C@H]1C(=O)N[C@@H](CC(N)=O)C(=O)O)C(C)C [DAAVEPELYHWGKVWLPN] | ≥ 94.1 | > 94.1 | ≥ 94.1 | > 94.1 | 
CC[C@H](C)[C@H](NC(=O)[C@H](CO)NC(=O)[C@H](CC(C)C)NC(=O)[C@H](Cc1ccccc1)NC(=O)CN)C(=O)N[C@@H](CC(C)C)C(=O)N[C@@H](CCCCN)C(=O)N[C@@H](CCCCN)C(=O)N[C@H](C(=O)N[C@@H](CC(C)C)C(=O)N[C@@H](CCCCN)C(=O)N[C@@H](CCCCN)C(=O)N[C@H](C(=O)N[C@@H](CCSC)C(=O)N[C@@H](C)C(=O)N[C@@H](Cc1cnc[nH]1)C(=O)N[C@@H](CCSC)C(=O)N[C@@H](CCCCN)C(N)=O)C(C)C)C(C)C [GFLSILKKVLKKVMAHMK] |  |  |  |  | MIC (Bacillus subtilis 168): 1.4 µM (≈ 2.9 µg/mL); MIC (Escherichia coli B): 1.8 µM (≈ 3.73 µg/mL); MIC (Pseudomonas aeruginosa): 25.3 µM (≈ 52.4 µg/mL); MIC (Staphylococcus aureus): 13.8 µM (≈ 28.6 µg/mL)
CC[C@H](C)[C@H](NC(=O)[C@H](CC(C)C)NC(=O)[C@H](CC(C)C)NC(=O)[C@H](CC(=O)O)NC(=O)[C@H](CCCCN)NC(=O)[C@@H](NC(=O)[C@@H](NC(=O)CNC(=O)[C@H](CCSC)NC(=O)[C@@H](NC(=O)[C@@H](N)CO)C(C)C)[C@@H](C)O)C(C)C)C(=O)NCC(=O)N[C@@H](C)C(=O)NCC(=O)N[C@@H](CCCCN)C(=O)N[C@@H](CO)C(=O)N[C@@H](C)C(=O)N[C@@H](C)C(=O)N[C@@H](CCC(N)=O)C(=O)N[C@@H](CO)C(=O)N[C@H](C(=O)N[C@@H](CC(C)C)C(=O)N[C@@H](CCCCN)C(=O)N[C@@H](CO)C(=O)N[C@@H](CC(C)C)C(=O)N[C@@H](CO)C(=O)N[C@H]1CSSC[C@@H](C(=O)O)NC(=O)[C@H](CC(=O)O)NC(=O)[C@H](CC(N)=O)NC(=O)[C@H](CO)NC(=O)[C@H]([C@@H](C)CC)NC(=O)[C@H](CCCCN)NC1=O)C(C)C [SVMGTVKDLLIGAGKSAAQSVLKSLSCKISNDC] | 1.41 (≈ 4.7 µg/mL) | 1.41 (≈ 4.7 µg/mL) | 1.41 (≈ 4.7 µg/mL) | 2.83 (≈ 9.39 µg/mL) | 
CC[C@H](C)[C@H](NC(=O)[C@H](C)NC(=O)[C@H](CCCN=C(N)N)NC(=O)[C@H](Cc1ccc(O)cc1)NC(=O)[C@H](CC(C)C)NC(=O)[C@H](CC(N)=O)NC(=O)[C@H](Cc1ccc(O)cc1)NC(=O)CNC(=O)[C@H](C)NC(=O)[C@@H](NC(=O)[C@@H](NC(=O)[C@@H](NC(=O)[C@H](CCCN=C(N)N)NC(=O)[C@@H](NC(=O)[C@@H](NC(=O)[C@@H](NC(=O)[C@@H]1CCCN1C(=O)[C@H](Cc1c[nH]c2ccccc12)NC(=O)[C@H](Cc1ccccc1)NC(=O)[C@@H](N)CCCN=C(N)N)C(C)C)C(C)C)[C@@H](C)CC)[C@@H](C)O)C(C)C)C(C)C)C(=O)N[C@@H](CCCCN)C(=O)N[C@@H](CCCCN)C(=O)N[C@@H](CCCCN)C(=O)O [RFWPVVIRTVVAGYNLYRAIKKK] | 0.211 (≈ 0.586 µg/mL) | 7.11 (≈ 19.8 µg/mL) |  | 0.422 (≈ 1.17 µg/mL) | MIC (Bacillus subtilis): 2.53 µM (≈ 7.03 µg/mL)
CC[C@H](C)[C@H](NC(=O)[C@H](Cc1cnc[nH]1)NC(=O)[C@H](CCCCN)NC(=O)[C@H](CC(C)C)NC(=O)[C@H](CC(C)C)NC(=O)[C@H](CO)NC(=O)[C@H](CCSC)NC(=O)[C@H](Cc1c[nH]c2ccccc12)NC(=O)[C@H](CCCCN)NC(=O)[C@@H](N)CCCCN)C(=O)N[C@@H](CC(C)C)C(=O)N[C@@H](CCCCN)C(N)=O [KKWMSLLKHILK] |  |  |  |  | MIC (Bacillus subtilis 168): 1.1 µM (≈ 1.68 µg/mL); MIC (Escherichia coli B): 3 µM (≈ 4.57 µg/mL); MIC (Pseudomonas aeruginosa): 25 µM (≈ 38.1 µg/mL); MIC (Staphylococcus aureus): 28.3 µM (≈ 43.1 µg/mL)
CC[C@H](C)[C@H](NC(=O)[C@H](CCCCN)NC(=O)[C@H](CCCCN)NC(=O)[C@H](Cc1c[nH]c2ccccc12)NC(=O)[C@@H](NC(=O)[C@@H](N)CC(N)=O)C(C)C)C(=O)N[C@@H](CC(C)C)C(=O)NCC(=O)N[C@@H](CCCCN)C(=O)N[C@H](C(=O)N[C@H](C(=O)N[C@@H](CCCCN)C(=O)N[C@H](C(=O)N[C@@H](C)C(=O)N[C@@H](CCCCN)C(N)=O)C(C)C)[C@@H](C)CC)[C@@H](C)CC [NVWKKILGKIIKVAK] |  |  |  |  | MIC (Bacillus subtilis 168): 0.7 µM (≈ 1.22 µg/mL); MIC (Escherichia coli B): 1.1 µM (≈ 1.91 µg/mL); MIC (Pseudomonas aeruginosa): 23.3 µM (≈ 40.5 µg/mL); MIC (Staphylococcus aureus): 19.7 µM (≈ 34.2 µg/mL)

Now from value to compound, other results behind:

MIC [1] [µM] | MIC [2] [µM] | MIC [3] [µM] | MIC [4] [µM] | Compound | also measured
≥ 188 | > 188 | ≥ 188 | > 188 | CC(C)C[C@H](NC(=O)CNC(=O)[C@@H]1CCCN1C(=O)[C@H](CC(C)C)NC(=O)[C@@H](N)Cc1ccccc1)C(=O)N[C@@H](CCC(=O)O)C(=O)N[C@@H](CS)C(=O)N[C@H](C(=O)N[C@@H](Cc1c[nH]c2ccccc12)C(=O)O)C(C)C [FLPGLECVW] | 
4.45 (≈ 15.8 µg/mL) | 4.45 (≈ 15.8 µg/mL) | 2.22 (≈ 7.9 µg/mL) | 2.22 (≈ 7.9 µg/mL) | CC[C@H](C)[C@H](NC(=O)[C@H](C)NC(=O)[C@H](CC(C)C)NC(=O)[C@H](CCC(=O)O)NC(=O)[C@H](CCCCN)NC(=O)[C@H](Cc1ccccc1)NC(=O)[C@@H](NC(=O)[C@H](CO)NC(=O)[C@H](CC(C)C)NC(=O)[C@H](Cc1ccccc1)NC(=O)[C@@H](N)CO)[C@@H](C)O)C(=O)N[C@@H](CC(N)=O)C(=O)N[C@@H](C)C(=O)N[C@@H](C)C(=O)N[C@@H](CCCCN)C(=O)N[C@@H](CC(N)=O)C(=O)N[C@@H](C)C(=O)NCC(=O)N[C@@H](CCC(N)=O)C(=O)N[C@@H](CO)C(=O)N[C@@H](CC(C)C)C(=O)N[C@@H](CC(C)C)C(=O)N[C@@H](Cc1cnc[nH]1)C(=O)N[C@H](C(=O)N[C@@H](CC(C)C)C(=O)N[C@@H](CO)C(=O)N[C@H]1CSSC[C@@H](C(=O)O)NC(=O)[C@H]([C@@H](C)O)NC(=O)[C@H](CCCCN)NC(=O)[C@H](CC(=O)O)NC(=O)[C@H](CC(C)C)NC(=O)[C@H](CCCCN)NC1=O)[C@@H](C)O [SFLSTFKELAINAAKNAGQSLLHTLSCKLDKTC] | 
1.49 (≈ 3.2 µg/mL) | 2.92 (≈ 6.29 µg/mL) | 2.92 (≈ 6.29 µg/mL) | 2.92 (≈ 6.29 µg/mL) | CC[C@H](C)[C@H](NC(=O)CN)C(=O)N[C@@H](Cc1ccccc1)C(=O)NCC(=O)N[C@@H](CCCCN)C(=O)N[C@H](C(=O)N[C@@H](CC(C)C)C(=O)NCC(=O)N[C@H](C(=O)NCC(=O)N[C@@H](CCCCN)C(=O)N[C@@H](CCCCN)C(=O)N[C@H](C(=O)N[C@@H](CC(C)C)C(=O)N[C@H]1CSSC[C@@H](C(=O)O)NC(=O)[C@H](CCSC)NC(=O)CNC(=O)[C@H](CO)NC(=O)[C@H](CC(C)C)NC(=O)[C@H](CCC(=O)O)NC1=O)[C@@H](C)O)C(C)C)[C@@H](C)CC [GIFGKILGVGKKTLCELSGMC] | 
≥ 91.4 | > 91.4 | ≥ 91.4 | > 91.4 | C[C@@H](O)[C@H](NC(=O)[C@H](CO)NC(=O)[C@H](Cc1ccccc1)NC(=O)[C@@H](N)Cc1ccccc1)C(=O)N[C@@H](CO)C(=O)N[C@H]1CSSC[C@@H](C(=O)O)NC(=O)CNC(=O)[C@H](CO)NC(=O)[C@H](CCCN=C(N)N)NC1=O [FFSTSCRSGC] | 
 | > 128 |  |  | CC[C@H](C)[C@H](NC(=O)[C@H](C)NC(=O)CNC(=O)[C@H](CC(C)C)NC(=O)[C@@H](N)Cc1ccccc1)C(=O)N[C@@H](C)C(=O)N[C@@H](CCC(N)=O)C(=O)N[C@@H](C)C(=O)N[C@@H](CC(C)C)C(=O)N[C@H](C(=O)N[C@@H](CO)C(=O)N[C@@H](CC(C)C)C(=O)N[C@@H](CC(C)C)C(=O)NCC(=O)N[C@@H](CCCCN)C(=O)N[C@@H](CC(C)C)C(N)=O)[C@@H](C)O [FLGAIAQALTSLLGKL] | MIC [5]: ≥ 64 µM; MIC [6]: 8 µM (≈ 12.9 µg/mL)

— DBAASP
